Assay results reported in paper PMC6337391 (Molecules, 2019).
Like-named read-outs stand apart in the source and are kept apart here.

What was measured:
[1] = Reducing activity with the stable radical DPPH
Outline: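 DPPH (final 0.05 mM) in absolute ethanol mixed with an equal volume of compound at 0.05 or 0.1 mM, ethanol as control. Absorbance at 517 nm read at room temperature after 20 and 60 min, expressed as reducing activity RA%.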

[2] = ABTS•+ decolorization assay
Outline: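 Compounds (10 mM DMSO stocks, diluted) added to ABTS•+ radical generated by potassium persulfate oxidation of ABTS. Decolorization followed as absorbance at room temperature, with Trolox as standard.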

[3] = Inhibition of linoleic acid lipid peroxidation (AAPH)
Outline: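 Sodium linoleate oxidation was initiated by AAPH in 0.05 M phosphate buffer, pH 7.4, at 37 °C, with test compound present and DMSO as blank. Conjugated diene hydroperoxide formation was followed as the absorbance increase at 234 nm.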

soybean lipoxygenase [4] = target: T1, soybean lipoxygenase (Glycine max, UniProt P08170); assay: biochemical; type: biochemical; conditions: soybean LOX
T1 sequence (P08170 1-839): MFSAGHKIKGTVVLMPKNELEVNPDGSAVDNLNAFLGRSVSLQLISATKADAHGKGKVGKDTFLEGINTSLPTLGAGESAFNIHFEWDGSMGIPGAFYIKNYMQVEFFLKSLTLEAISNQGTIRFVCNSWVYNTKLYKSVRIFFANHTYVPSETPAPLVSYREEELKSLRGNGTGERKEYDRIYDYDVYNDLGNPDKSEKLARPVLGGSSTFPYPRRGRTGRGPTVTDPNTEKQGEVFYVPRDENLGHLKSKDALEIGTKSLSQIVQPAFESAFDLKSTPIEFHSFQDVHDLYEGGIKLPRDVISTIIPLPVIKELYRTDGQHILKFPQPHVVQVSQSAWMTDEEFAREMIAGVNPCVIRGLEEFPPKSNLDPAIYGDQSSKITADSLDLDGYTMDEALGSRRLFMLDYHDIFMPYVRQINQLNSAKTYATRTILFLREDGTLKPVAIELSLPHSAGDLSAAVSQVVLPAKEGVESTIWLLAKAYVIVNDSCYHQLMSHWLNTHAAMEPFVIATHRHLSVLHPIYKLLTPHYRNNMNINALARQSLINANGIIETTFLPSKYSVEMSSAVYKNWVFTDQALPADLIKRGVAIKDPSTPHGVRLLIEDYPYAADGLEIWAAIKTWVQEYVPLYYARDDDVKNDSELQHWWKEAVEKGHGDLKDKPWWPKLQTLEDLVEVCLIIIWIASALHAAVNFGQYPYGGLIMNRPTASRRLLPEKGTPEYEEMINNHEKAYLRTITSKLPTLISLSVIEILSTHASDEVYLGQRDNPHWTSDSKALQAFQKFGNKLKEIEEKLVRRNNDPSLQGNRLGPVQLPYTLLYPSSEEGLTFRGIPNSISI
Outline: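 Soybean LOX (enzyme solution 1/9 × 10^−4 w/v in saline) incubated at room temperature with sodium linoleate ([…]) in tris buffer pH 9. Compounds added from DMSO stocks. IC50 derived from several concentrations.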

[5] = target: T2, acetyl-cholinesterase (AChE) (Electrophorus electricus, UniProt O42275); type: biochemical
Procedure: We investigated, in vitro, the inhibitory activity of a, b, c, and e derivatives on acetylcholinesterase activity using acetylthiocholine as a substrate [29].
A modified procedure which was followed in our previous publication was performed [29]. A stock solution (10 mM) of the compounds diluted in DMSO was used (final concentration 100 µM).

[6] = Lipophilicity as RM values by RP-TLC; type: physicochemical; design: key: RM = log[(1/Rf) − 1]; conditions: methanol/water 70/30, SD < 10%
Outline: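 Reversed-phase TLC on silica gel plates impregnated with 5% (v/v) liquid paraffin, methanol/water 70/30 (v/v) mobile phase, saturated tanks at 24 °C, UV detection. RM = log[(1/Rf) − 1] from five Rf measurements.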

[7] = tested on: L929 mouse fibroblasts cells; assay: Cytotoxicity, propidium iodide fluorescence method; type: cell-based; conditions: 24-h incubation
Outline: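 L929 cells in EMEM with 10% horse serum were allowed to attach for 24 h, then exposed to 1, 10, 20, 50 and 100 μM compound for 24 h at 37 °C. Cells were detached, stained with propidium iodide, and cell death was measured by flow cytometry.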

human h-15-LOX-1 = target: T3, human h-15-LOX-1 (Homo sapiens, UniProt P16050); assay: Human h-15-LOX-1 screening UV assay; type: biochemical; conditions: read-out: h-15-LOX-1 Inhb. IC50
T3 sequence (P16050 1-662): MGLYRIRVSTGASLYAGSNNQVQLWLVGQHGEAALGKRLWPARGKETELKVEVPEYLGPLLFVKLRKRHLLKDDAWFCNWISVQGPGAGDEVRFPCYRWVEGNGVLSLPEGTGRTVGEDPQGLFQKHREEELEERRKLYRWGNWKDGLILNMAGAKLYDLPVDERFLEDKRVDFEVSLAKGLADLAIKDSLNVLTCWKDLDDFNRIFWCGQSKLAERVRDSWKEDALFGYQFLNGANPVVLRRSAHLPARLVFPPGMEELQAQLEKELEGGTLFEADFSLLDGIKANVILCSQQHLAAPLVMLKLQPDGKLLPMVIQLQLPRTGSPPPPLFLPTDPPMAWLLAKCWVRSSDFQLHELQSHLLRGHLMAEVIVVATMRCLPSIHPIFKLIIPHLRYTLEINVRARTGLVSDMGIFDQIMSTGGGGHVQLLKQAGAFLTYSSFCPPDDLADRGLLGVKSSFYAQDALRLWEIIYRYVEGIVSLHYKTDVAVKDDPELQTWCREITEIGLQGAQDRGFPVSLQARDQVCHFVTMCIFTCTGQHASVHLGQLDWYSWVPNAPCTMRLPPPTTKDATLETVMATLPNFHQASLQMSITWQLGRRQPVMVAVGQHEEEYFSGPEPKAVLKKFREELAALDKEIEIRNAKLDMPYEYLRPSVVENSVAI
Procedure: The residual enzyme activity was measured after 10 min pre-incubation with the tested compounds at room temperature. […] Compound c11 follows.
The assay buffer consists of HEPES titrated to pH 7.5 using a concentrated aqueous solution of NaOH. Linoleic acid (LA) was used as a substrate. The linear absorbance increase in absence of the inhibitor was set as 100%, whereas the absorbance increase in absence of the enzyme was set to 0%. All experiments were performed in triplicate and the average triplicate values and their standard deviations are plotted. The vertical axis describes the residual enzyme activity percent % of the human h-15-LOX-1, whereas the horizontal axis describes the concentration of 50 µM of the compounds. The half maximal inhibitor concentration (IC50) of the inhibitors for h-15-LOX-1 was determined using the same assay (Figure 6 and Figure 7).

Aβ40 = target: T4, Aβ40 (Homo sapiens, UniProt P05067); assay: Circular dichroism study of Aβ40 aggregation; conditions: 50 µM compound, 50 µM Aβ40 (1:1), PB pH 7.33, 33 °C, 40 days
T4 construct: Amyloid peptide Aβ40 was purchased from AnaSpec Co; purchased AnaSpec Co. (Fremont, CA, USA)
Description: The pathogenesis of Alzheimer’s disease (AD) is widely associated with the aggregation of β-amyloid peptide (Aβ) either to soluble oligomers or to higher-order polymeric insoluble fibrils. As a result, one of the main therapeutic strategies against AD targets the aggregation process of Aβ, and a great number of small molecules are being investigated for their potential to intervene in the assembly of Aβ and inhibit its neurotoxicity in vitro and in vivo [64]. Circular dichroism (CD) spectroscopy is commonly used to probe the secondary structure of polypeptides and to monitor conformational changes and interactions of polypeptides with small molecules. The typical aggregation process of Aβ produces characteristic CD spectra over time that reflect the conformational changes that occur as the random coil monomers are converted into β-sheet oligomers, and then gradually to larger β-sheet formations that finally produce amyloid fibrils. CD is, therefore, a valuable tool to monitor the aggregation process of Aβ and to study the effect of potential aggregation inhibitors. To further investigate the pleiotropic effects of chalcones against AD, selected compounds from our library, were subjected to CD studies in order to evaluate their potential to interfere with the aggregation process of Aβ40. […] The aggregation spectra of plain Aβ40 show at day 0 the typical random coil peak (negative maximum at 198 nm) the intensity of which gradually decreases as the peptide forms β–sheet structures (negative maximum at 222 nm, day 15) that further aggregate to higher order polymeric fibrils. The precipitation of the insoluble fibrils from solution eventually results in the loss of CD signal (days 30 and 40). […] In view of the above results, chalcone derivatives bearing a three-carbon chain linker, specifically c2, c3, and c4, were subsequently studied in order to assess the effect of further derivatization and the presence of the chalcone moiety in the structure. […] Overall, our CD study identified three new structures capable of interfering with the aggregation process of Aβ, out of which compounds c2 and c4 display additional protective actions against AD and add to the pleiotropic profile of the chalcone derivatives.
Preparation of Aβ stocks and solutions. Amyloid peptide Aβ40 was purchased from AnaSpec Co. (Fremont, CA, USA) (>95% pure). Aβ40 was gently dissolved without vortexing in Type 1 (Milli-Q) water to a final concentration of 100 μM. Solutions of Aβ in phosphate buffer (PB, 10 mM, pH 7.33) were prepared by adding equal volumes of PB to aliquots of the aqueous solution stock to achieve final concentration of 50 µM. The proper amount of the compounds c2, c3, c4, di, dii, and dvi were added to the Aβ solutions to achieve concentration of 50 μM. The secondary structural changes of Aβ were monitored for 40 days by CD. During this period, the amyloid peptide solutions were kept at an incubator at 33 °C under quiescent conditions.
Circular dichroism measurements. CD spectra were recorded on a JASCO J-715 spectropolarimeter (Jasco Co., Tokyo, Japan), at 33 °C in the range of 190–260 nm with a 1 mm path length quartz cuvette. Each spectrum was the average of three scans at a speed of 100 nm·min^−1 and a resolution of 0.5 nm. Three independent experiments were run for each condition and in each case solutions of plain Aβ were run as control (Figure 8). The analysis of the CD data was performed using the OriginPro 9 program.

[8] = design: method as in PMID 25798685; conditions: DPPH, cited from earlier work
[9] = design: method as in PMID 25798685; conditions: cited from earlier work
[10] = design: method as in PMID 25798685; conditions: cited from earlier work; remark: listed apart in the source
soybean lipoxygenase [11] = target: T1, soybean lipoxygenase; design: method as in PMID 25798685; conditions: cited from earlier work
[12] = target: T2, acetyl-cholinesterase (AChE); conditions: cited from earlier work
[13] = design: method as in PMID 25798685; conditions: RP-TLC, methanol/water 70/30, SD < 10%; cited from earlier work
[14] = tested on: L929 mouse fibroblasts cells; design: method as in PMID 25798685; conditions: 24-h incubation, cited from earlier work
[15] = In vitro lipid peroxidation of liposomes

T2 sequence (O42275 24-633): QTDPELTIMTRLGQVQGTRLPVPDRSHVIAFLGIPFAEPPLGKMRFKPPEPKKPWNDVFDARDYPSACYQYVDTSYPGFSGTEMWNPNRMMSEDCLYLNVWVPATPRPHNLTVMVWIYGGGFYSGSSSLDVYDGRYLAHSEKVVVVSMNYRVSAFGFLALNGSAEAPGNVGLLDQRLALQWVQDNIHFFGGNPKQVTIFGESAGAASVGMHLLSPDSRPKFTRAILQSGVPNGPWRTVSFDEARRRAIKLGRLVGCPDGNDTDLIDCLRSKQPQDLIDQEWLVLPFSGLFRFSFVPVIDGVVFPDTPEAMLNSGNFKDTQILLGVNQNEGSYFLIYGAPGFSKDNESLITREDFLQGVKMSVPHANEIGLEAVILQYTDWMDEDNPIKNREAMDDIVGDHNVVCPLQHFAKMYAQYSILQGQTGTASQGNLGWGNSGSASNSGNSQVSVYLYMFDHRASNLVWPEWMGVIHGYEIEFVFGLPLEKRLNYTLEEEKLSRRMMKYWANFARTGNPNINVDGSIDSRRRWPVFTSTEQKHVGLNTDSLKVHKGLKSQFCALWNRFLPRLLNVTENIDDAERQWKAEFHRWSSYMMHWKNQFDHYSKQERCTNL
T4 sequence (P05067 672-711 limits assumed): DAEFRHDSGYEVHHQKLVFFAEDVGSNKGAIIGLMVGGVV

O=C(/C=C/C1=C2C=CC=CC2NC1)c1ccc(O)cc1 (centres unmarked) [a6, (E)-3-(2,7a-dihydro-1H-indol-3-yl)-1-(4-hydroxyphenyl) prop-2-en-1-one]
RA% 100 μM 20 min [1]: 15%
RA% 100 μM 60 min [1]: 2%
ABTS•+ Inhb. % @ 100 μM [2]: No
AAPH% @ 100 μM (anti-lipid peroxidation) [3]: 45%
% LOX Inhb. @ 100 μM (soybean lipoxygenase [4]): 60%
% AChE Inhb. @ 100 μM [5]: Νο
RM [6]: −0.65
1 μM Average (% pi) ± σ [7]: 1.71 ± 2.08%
10 μM Average (% pi) ± σ [7]: 1.66 ± 0.59%
20 μM Average (% pi) ± σ [7]: 3.25 ± 2.6%
50 μM Average (% pi) ± σ [7]: 6.67 ± 1.35%
100 μM Average (% pi) ± σ [7]: 6.67 ± 1.35%

O=C(/C=C/c1c[nH]c2ccccc12)c1ccc(OCCCOc2ccc(C(=O)/C=C/c3c[nH]c4ccccc34)cc2)cc1 [c6, (2E,2′E)-1,1′-((propane-1,3-diylbis(oxy))bis(4,1-phenylene))bis(3-(1H-indol-3-yl)prop-2-en-1-one)]
RA% 100 μM 20 min [1]: No
RA% 100 μM 60 min [1]: No
ABTS•+ Inhb. % @ 100 μM [2]: No
AAPH% @ 100 μM (anti-lipid peroxidation) [3]: 100%
% LOX Inhb. @ 100 μM (soybean lipoxygenase [4]): 98%
IC50 (soybean lipoxygenase [4]; read-out: LOX IC50): 54 µM
% AChE Inhb. @ 100 μM [5]: did not present any activity and Νο
RM [6]: −0.97
1 μM Average (% pi) ± σ [7]: 1.12 ± 1.15%
10 μM Average (% pi) ± σ [7]: 2.2 ± 1.66%
20 μM Average (% pi) ± σ [7]: 1.16 ± 0.81%
50 μM Average (% pi) ± σ [7]: 3.03 ± 0.02%
100 μM Average (% pi) ± σ [7]: 3.03 ± 0.02%

c1ccc2c(c1)SCc1c-2[nH]c2ccccc12 [PD-146176, reference compound]
IC50 (human h-15-LOX-1): 16 µM

O=C(/C=C/c1cccc(Oc2ccccc2)c1)c1ccc(OCCCOc2ccc(C(=O)/C=C/c3cccc(Oc4ccccc4)c3)cc2)cc1 [c2, (2E,2′E)-1,1′-((propane-1,3-diylbis(oxy))bis(4,1-phenylene))bis(3-(3-phenoxyphenyl)prop-2-en-1-one)]
effect on the aggregation process of Aβ40 (CD spectra) (Aβ40): stabilized β-sheet assemblies that did not evolve further into insoluble fibrillar aggregates
RA% 100 μM 20 min ([8]; 20 min): No
RA% 100 μM 60 min ([8]; 60 min): 8%
ABTS•+ Inhb. % @ 100 μM [9]: no
AAPH% @ 100 μM (anti-lipid peroxidation) [10]: 22%
% LOX Inhb. @ 100 μM (soybean lipoxygenase [11]; 100 μM): 100%
IC50 (soybean lipoxygenase [11]; soybean LOX): 55 µM
% AChE Inhb. @ 100 μM [12]: 71%
RM [13]: −0.89
1 μM Average (% pi) ± σ ([14]; 1 μM): 17 ± 1.4%
10 μM Average (% pi) ± σ ([14]; 10 μM): 29 ± 4.2%
20 μM Average (% pi) ± σ ([14]; 20 μM): 43 ± 2.8%
50 μM Average (% pi) ± σ ([14]; 50 μM): 55 ± 4.2%
100 μM Average (% pi) ± σ ([14]; 100 μM): 55 ± 4.2%
% Inhb. of Liposomes LP @ 100 μM [15]: 2%
